Drawing on US9340577B2, “HLA binding motifs and peptides and their uses” (priority 1992, dated 2016), this text covers IC50 for 15 molecules.

No end group written: not given here. Some results are limits rather than exact numbers.

Holding throughout (experiment): biochemical
One experiment has as its target DRB1*1201 (Homo sapiens, UniProt P01903+P01911, A100R/A169T/D57E/D86V/F55L/H45Y/K41T/L162R/M171V/P40S/Q125H/Q178H/Q39Y/Q99D/R42G/S66L/T262R/V114A/V67L/W38E/Y59H/Y61H/Y89S). The format is binding.
For the next experiment, the target named is DRB1*0301 (Homo sapiens, UniProt P01903+P01911, A100K/A102G/A103R/A169T/F55Y/I96L/K41T/L162R/M171V/P40S/Q125H/Q178H/Q39Y/R42S/S66N/T106N/T262R/W38E/Y61H). The format is binding.
DRB1*0301, sequence (P01903 26-254 limits assumed, other chains not shown): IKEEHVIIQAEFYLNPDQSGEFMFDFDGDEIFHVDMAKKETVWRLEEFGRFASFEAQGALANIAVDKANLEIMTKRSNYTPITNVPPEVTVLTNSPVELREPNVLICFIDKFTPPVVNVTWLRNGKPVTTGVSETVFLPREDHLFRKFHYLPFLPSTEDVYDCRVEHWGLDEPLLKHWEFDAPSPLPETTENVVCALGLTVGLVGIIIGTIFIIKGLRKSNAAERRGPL
The next experiment addresses DRB1*0405 (Homo sapiens, UniProt P01903+P01911, A100R/A169T/D86S/F76Y/I96L/K127E/L162R/M171V/N62H/P40V/Q125Y/R42H/S133A/S149N/S66Y/V115G/V209L/W38E). The format is binding.
A further experiment addresses DRB1*1501 (Homo sapiens, UniProt P01903+P01911). It is filed as binding.
The next experiment concerns the target DRB1*1302 (Homo sapiens, UniProt P01903+P01911, A100E/A169T/K41T/L162R/M171V/P40S/Q125H/Q178H/Q39Y/Q99D/R42S/S66N/T262R/V115G/W38E/Y61H). It is filed as binding.
The target of another experiment is DRB1*1101 (Homo sapiens, UniProt P01903+P01911, A100R/A169T/A87E/I96F/K41T/L162R/M171V/P40S/Q125H/Q178H/Q39Y/Q99D/R42S/S66Y/T262R/V115G/W38E). The note with it: Binding affinity DRB1 *1101.
DRB1*1101, sequence (P01903 26-254 limits assumed, other chains not shown): as above
The next experiment has as its target DR4w4 (DRB1*0401) (Homo sapiens, UniProt P01903+P01911, A100K/A169T/F76Y/I96L/K127E/L162R/M171V/N62H/P40V/Q125Y/R42H/S133A/S149N/S66Y/V115G/V209L/W38E). The format is binding.
The next experiment deals with DRB4*0101 (Homo sapiens, UniProt P01903+P13762, G164S). The format is binding.
The target in a further experiment is DRB1*0802 (Homo sapiens, UniProt P01903+P01911, A100R/A103L/A169T/F76Y/H45Y/I96F/K41T/L162R/M171V/P40S/Q125H/Q178H/Q39Y/Q99D/R218S/R42G/S66Y/V115G/W38E). The format is binding.
Another experiment has as its target DR1 (DRB1*0101) (Homo sapiens, UniProt P01903+P01911, A100R/D57E/F55L/F60I/F76Y/I96L/L162R/M171V/P40L/Q125E/R42F/V115G/Y59C). The format is binding.
The target of another experiment is DRB1*0901 (Homo sapiens, UniProt P01903+P01911, A100R/A103E/D57H/D86V/F55Y/F60I/F76Y/I96F/K127E/L162R/M171V/P40D/Q125H/Q99R/R33Q/R42F/S133A/S66N/T210M/V115G/W38K/Y107V/Y59G/Y89S). It is filed as binding.
The target of a further experiment is DRB5*0101 (Homo sapiens, UniProt P01903+Q30154). The note with it: Binding affinity DRB5 *0101.
In another experiment the target is DR7 (DRB1*0701) (Homo sapiens, UniProt P01903+P01911, A100R/A102G/A103Q/D57E/D86V/E43K/F76Y/K127E/L162R/M171V/P40G/Q125H/Q99D/R33Q/R42Y/R54Q/S133A/S66F/T210M/V115G/Y107V/Y59L/Y89S). It is filed as binding.

DRB1*1302, sequence (P01903 26-254 limits assumed, other chains not shown): as above

Broadly, the IC50 is the concentration that inhibits the measured activity by half. Read a low IC50 as inhibition by little substance. As to `CC(C)C[C@H](NC(=O)[C@H](CO)NC(=O)[C@H](CC(C)C)NC(=O)[C@H](CO)NC(=O)[C@H](C)NC(=O)[C@H](C)NC(=O)[C@H](CCCNC(=N)N)NC(=O)[C@H](C)NC(=O)[C@H](CC(C)C)NC(=O)[C@H](CC(C)C)NC(=O)[C@H](CC(C)C)NC(=O)[C@@H]1CCCN1C(=O)[C@H](C)NC(=O)[C@H](C)N)C(=O)NCC(=O)O` [Peptide 68.0019], the IC50 on DRB1*1201 is 564 nM; on DRB1*0301, greater than 20000 nM.
For `CC(C)C[C@H](NC(=O)[C@H](CO)NC(=O)[C@H](CC(C)C)NC(=O)[C@H](CO)NC(=O)[C@H](C)NC(=O)[C@H](C)NC(=O)[C@H](CCCNC(=N)N)NC(=O)[C@H](C)NC(=O)[C@H](CC(C)C)NC(=O)[C@H](CC(C)C)NC(=O)[C@H](CC(C)C)NC(=O)[C@@H]1CCCN1C(=O)[C@H](C)N)C(=O)NCC(=O)N[C@@H](Cc1ccccc1)C(=O)O` [Peptide 68.0020], in that order: 225 nM and greater than 20000 nM.
The corresponding values for `CC[C@H](C)[C@H](NC(=O)[C@H](CO)NC(=O)[C@@H](NC(=O)CN)C(C)C)C(=O)N[C@@H](Cc1c[nH]c2ccccc12)C(=O)N[C@@H](CC(N)=O)C(=O)N1CCC[C@H]1C(=O)N[C@H](C(=O)N[C@@H](CC(C)C)C(=O)N[C@@H](CC(C)C)C(=O)N[C@@H](Cc1c[nH]c2ccccc12)C(=O)N[C@@H](CCC(N)=O)C(=O)N1CCC[C@H]1C(=O)N[C@H](C(=O)N1CCC[C@H]1C(=O)O)[C@@H](C)CC)[C@@H](C)CC` [Peptide 68.0034] are 3900 nM and greater than 20000 nM.
For `CC[C@H](C)[C@H](NC(=O)[C@H](CC(C)C)NC(=O)[C@H](CCCCN)NC(=O)[C@H](CCCCN)NC(=O)[C@@H](N)Cc1ccc(O)cc1)C(=O)N[C@@H](CCSC)C(=O)N[C@@H](Cc1ccc(O)cc1)C(=O)N[C@@H](CO)C(=O)N[C@@H](C)C(=O)N[C@@H](Cc1c[nH]cn1)C(=O)N[C@@H](CC(=O)O)C(=O)N[C@H](C(=O)N[C@H](C(=O)N[C@H](C(=O)N[C@@H](CO)C(=O)O)C(C)C)[C@@H](C)O)[C@@H](C)O` [Peptide 68.0049], the results for the IC50 on DRB1*1201 and against DRB1*0301 were 928 nM and greater than 20000 nM, respectively.
As to `CC[C@H](C)[C@H](NC(=O)CNC(=O)[C@H](CCC(=O)O)NC(=O)[C@H](Cc1c[nH]cn1)NC(=O)[C@@H](NC(=O)[C@H](Cc1ccc(O)cc1)NC(=O)[C@H](Cc1ccc(O)cc1)NC(=O)[C@H](CC(C)C)NC(=O)CN)C(C)C)C(=O)N[C@@H](CCCNC(=N)N)C(=O)N[C@H](C(=O)N[C@@H](Cc1ccc(O)cc1)C(=O)N[C@@H](Cc1ccccc1)C(=O)N[C@H](C(=O)N[C@@H](CCC(N)=O)C(=O)O)C(C)C)[C@@H](C)O` [Peptide 90.0171], the IC50 stood at 4660 nM against DRB1*0405; 1620 nM against DRB1*1501; 532 nM at DRB1*1302; 5360 nM at DRB1*1101; 668 nM against DR4w4 (DRB1*0401); 689 nM on DRB1*0301. The concentration for half-maximal inhibition (IC50) against DRB4*0101 was 1.9 nM; against DRB1*0802, 7380 nM; against DR1 (DRB1*0101), 26 nM; against DRB1*0901 it was 1000 nM; on DRB5*0101 it was greater than 20000 nM; against DR7 (DRB1*0701) it was 5580 nM.
In the case of AKLMSNLLSIPETCM [Peptide 89.0066], the IC50 against DRB1*0405 is 34 nM; on DRB1*1501 it was 3430 nM; at DRB1*1302, 12 nM; on DRB1*1101, 14600 nM; against DR4w4 (DRB1*0401), 99 nM; on DRB1*0301, 12800 nM. Besides, the IC50 against DRB4*0101 is 421 nM; at DRB1*0802, greater than 20000 nM; against DR1 (DRB1*0101), 323 nM; on DRB1*0901, 9140 nM; at DRB5*0101 it was greater than 20000 nM; on DR7 (DRB1*0701), 388 nM.
Regarding AYGISFMELVRPFKS [Peptide 89.0060], the half-maximal inhibitory concentration (IC50) against DRB1*0405 stood at 4260 nM; against DRB1*1302, 4490 nM; at DRB1*1101, 51 nM; against DR4w4 (DRB1*0401) it was 1720 nM; against DRB1*0301 it was 7090 nM; at DRB4*0101, 31 nM. The IC50 against DRB1*0802 was 158 nM; against DR1 (DRB1*0101) it was 640 nM; on DRB5*0101, 3030 nM.
In the case of ETCMLIQPPKLRSSV [Peptide 89.0029], the 50% inhibitory concentration (IC50) against DRB1*0405 is 1560 nM; at DRB1*1501 it was 1700 nM; on DRB1*1302, 3050 nM; against DR4w4 (DRB1*0401), 901 nM; on DRB1*0301, greater than 20000 nM; at DRB4*0101, 81 nM. Besides, the IC50 at DRB1*0802 was found to be 5080 nM; on DR1 (DRB1*0101) it was 60 nM; at DRB1*0901, 19500 nM; on DR7 (DRB1*0701), 354 nM.
With EVQIALESLSTTIYN [Peptide 90.0231], the concentration for half-maximal inhibition (IC50) was 4270 nM against DRB1*0405; 4.3 nM against DRB1*1302; greater than 20000 nM at DRB1*1101; 1280 nM against DR4w4 (DRB1*0401); 708 nM at DRB1*0301; 39 nM against DRB4*0101. The half-inhibitory concentration (IC50) on DRB1*0802 was greater than 20000 nM; against DRB1*0901 it was 406 nM; on DRB5*0101 it was greater than 20000 nM; against DR7 (DRB1*0701) it was 32 nM.
Turning to IIHLKGDKNSLKCLR [Peptide 90.0218], the IC50 against DRB1*0405 stood at 12700 nM; at DRB1*1501, 137 nM; against DRB1*1302, 1330 nM; against DR4w4 (DRB1*0401), 347 nM; against DRB1*0301, 42 nM; at DRB4*0101 it was 1440 nM. Further, at DRB5*0101, the IC50 was 9920 nM.
For KHIRLLECVLMYKARE [Peptide 1601.44], the IC50 at DRB1*0405 is 236 nM; at DRB1*1501 it was 74 nM; at DRB1*1302, 418 nM; at DRB1*1101, 613 nM; on DR4w4 (DRB1*0401), 67 nM; at DRB1*0301, 72 nM. In addition, the IC50 against DRB4*0101 is 39 nM; against DRB1*0802 it was 1770 nM; against DR1 (DRB1*0101), 120 nM; against DRB1*0901, 7480 nM; on DRB5*0101, 1630 nM; against DR7 (DRB1*0701) it was 6700 nM.
With KIGMIDDVTPISWTY [Peptide 90.0087], the IC50 against DRB1*0405 is greater than 20000 nM; against DRB1*1501 it was 4460 nM; against DRB1*1302, 9.8 nM; at DRB1*1101, greater than 20000 nM; against DR4w4 (DRB1*0401), 20 nM; against DRB1*0301, 70 nM. Moreover, the concentration for half-maximal inhibition (IC50) was 3120 nM against DRB4*0101; 8370 nM against DRB1*0802; 3220 nM against DR1 (DRB1*0101); greater than 20000 nM at DRB1*0901; greater than 20000 nM at DRB5*0101; greater than 20000 nM on DR7 (DRB1*0701).
Regarding LYGVSFMELIRPFQS [Peptide 89.0041], the half-inhibitory concentration (IC50) was 1800 nM on DRB1*0405; 1550 nM against DRB1*1501; greater than 20000 nM on DRB1*1302; 39 nM at DRB1*1101; 5210 nM at DR4w4 (DRB1*0401); greater than 20000 nM on DRB1*0301. Also, the IC50 against DRB4*0101 is 2.2 nM; at DRB1*0901 it was 64 nM; at DRB5*0101 it was 6040 nM.
Consider QHSFNDDIFDLSEMI [Peptide 90.0152], for which the IC50 came to 384 nM at DRB1*0405; 688 nM against DRB1*1501; 17 nM against DRB1*1302; 4380 nM at DRB1*1101; 37 nM against DR4w4 (DRB1*0401); 534 nM at DRB1*0301. Further, the IC50 amounted to 2.1 nM at DRB4*0101, 7610 nM against DRB1*0802 and 42 nM at DR1 (DRB1*0101).
Consider VMAIFGVNPTVAEGF [Peptide 89.0080], for which the IC50 was found to be 17 nM on DRB1*0405; 33 nM on DRB1*1302; 5600 nM at DRB1*1101; 77 nM against DR4w4 (DRB1*0401); 699 nM against DRB1*0301; 80 nM against DRB4*0101. Besides, the IC50 against DRB1*0802 is greater than 20000 nM; on DR1 (DRB1*0101), 190 nM; at DRB1*0901 it was 12900 nM; on DRB5*0101, 19400 nM; on DR7 (DRB1*0701) it was 336 nM.
